From article PMC4970648, “Studies on 16α-Hydroxylation of Steroid Molecules and Regioselective Binding Mode in Homology-Modeled Cytochrome P450-2C11” (International Journal of Medicinal Chemistry, 2010)

target: [3H]PROG 16α-hydroxylating activity by male rat liver microsomes (CYP2C11) (Rattus norvegicus, UniProt P08683); assay: Inhibition of [3H]progesterone 16α-hydroxylation by adult male rat liver microsomes; conditions: not given
Protocol: Approximately 95-day-old male Wistar rats, castrated on the 70th day after birth, were used. The liver microsomes were prepared as previously described. The experiments were performed according to instrumental guidelines for the care and use of laboratory animals.
The metabolism by rat liver microsomes were examined, according to our previously described procedure. Briefly, the microsomal suspension (400–600 μg of protein/2.2 mL, total volume of the reaction mixture) was preincubated with [3H]PROG (20 nM) under the absence or presence of an unlabeled steroid (0.01–10 μM) at 36°C for 30 min. […] After the incubation, two identical samples were mixed and extracted with toluene. The toluene-extractable [3H]PROG metabolites (more than 90%) were isolated by various paper chromatographic systems and then identified by recrysallization method. Other miscellaneous procedures are described in our previous papers.

Chain of [3H]PROG 16α-hydroxylating activity by male rat liver microsomes (CYP2C11) (P08683 whole entry): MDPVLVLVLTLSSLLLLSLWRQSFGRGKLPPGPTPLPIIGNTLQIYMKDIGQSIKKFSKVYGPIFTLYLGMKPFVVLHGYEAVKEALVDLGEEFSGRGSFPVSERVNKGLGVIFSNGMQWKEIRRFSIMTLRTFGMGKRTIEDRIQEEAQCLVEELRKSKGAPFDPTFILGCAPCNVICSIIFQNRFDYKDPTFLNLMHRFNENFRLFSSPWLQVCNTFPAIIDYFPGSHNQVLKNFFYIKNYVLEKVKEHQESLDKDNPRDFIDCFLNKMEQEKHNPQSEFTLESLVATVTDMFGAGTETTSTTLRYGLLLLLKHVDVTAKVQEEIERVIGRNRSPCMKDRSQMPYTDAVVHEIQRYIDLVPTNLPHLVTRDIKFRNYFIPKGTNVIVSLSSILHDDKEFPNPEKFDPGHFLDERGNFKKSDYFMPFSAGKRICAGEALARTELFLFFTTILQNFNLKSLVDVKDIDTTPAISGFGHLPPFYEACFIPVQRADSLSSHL

SMILES | [3H]PROG16α-hydroxylation (IC40) [nM]
CC(=O)[C@H]1[C@H](O)C[C@H]2[C@@H]3CC[C@H]4C[C@@H](O)CC[C@]4(C)[C@H]3CC[C@@]21C [compound 36, 3β,16α-Dihydroxy-5α-pregnan-20-one] | 1150

same assay, conditions: 40% inhibition not reached at 10 μM of unlabeled steroid; male rat liver microsomes

SMILES | [3H]PROG16α-hydroxylation (IC40), given as bound in μM
C[C@]12CC[C@H]3[C@@H](CCC4=CC(=O)CC[C@@]43C)[C@@H]1CC[C@@H]2C(=O)O [compound 39, 4-Androsten-3-one; 17-β-carboxylaic acid] | >10 μM^e
CC(=O)O[C@H]1CC[C@H]2[C@@H]3CCC4=CC(=O)CC[C@]4(C)[C@H]3CC[C@]12C [compound 42, 17β-Acetoxytestosterone] | >10 µM
C[C@]12CC[C@H](OS(=O)(=O)O)CC1=CC[C@@H]1[C@@H]2CC[C@]2(C)C(=O)CC[C@@H]12 [compound 44, Dehydroepiandrosterone-3-sulfate] | >10 µM
C[C@@]12CCC[C@H]1[C@@H]1CC[C@H]3CCCC[C@]3(C)[C@H]1CC2 [compound 46, 5α-Androstane] | >10 µM
C[C@@]12CCC[C@H]1[C@@H]1CC[C@@H]3CCCC[C@]3(C)[C@H]1CC2 [compound 47, 5β-Androstane] | >10 µM
C[C@]12CCCC[C@@H]1CC[C@@H]1[C@@H]2CC[C@]2(C)[C@@H](O)CC[C@@H]12 [compound 52, 5α-Androstan-17β-ol] | >10 µM
C[C@]12CC[C@@H](O)C[C@@H]1CC[C@@H]1[C@@H]2CC[C@]2(C)[C@@H](OS(=O)(=O)O)CC[C@@H]12 [compound 64, 5α-Androstan-3α,17β-diol-17-sulfate] | >10 µM

same assay, conditions: molar concentration of unlabeled steroid causing 40% inhibition; [3H]PROG 20 nM; unlabeled steroid 0.01–10 μM; male rat liver microsomes

SMILES | [3H]PROG16α-hydroxylation (IC40) [nM]
CC(=O)[C@H]1CC[C@H]2[C@@H]3CC[C@@H]4C[C@@H](O)CC[C@]4(C)[C@H]3CC[C@]12C [compound 34, 3β-Hydroxy-5 β -pregnan-20-one] | 170
CC(=O)[C@H]1CC[C@H]2[C@@H]3CC[C@H]4C[C@H](O)CC[C@]4(C)[C@H]3[C@@H](O)C[C@]12C [compound 35, 3α,11β-Dihydroxy-5α-pregnan-20-one] | 150
C[C@]12CCC(=O)C=C1CC[C@@H]1[C@@H]2CC[C@]2(C)C(=O)CC[C@@H]12 [compound 38, 4-Androsten-3,17-dione] | 1000
COC(=O)[C@H]1CC[C@H]2[C@@H]3CCC4=CC(=O)CC[C@]4(C)[C@H]3CC[C@]12C [compound 40, 4-Androsten-3-one;17-β-carboxylaic acid methyl ester] | 801
C[C@]12CC[C@H]3[C@@H](CCC4=CC(=O)CC[C@@]43C)[C@@H]1CC[C@@H]2O [compound 41, Testosterone] | 1450
C[C@]12CC[C@H](O)CC1=CC[C@@H]1[C@@H]2CC[C@]2(C)C(=O)CC[C@@H]12 [compound 43, Dehydroepiandrosterone] | 680
C[C@]12CC[C@H]3[C@@H](CC=C4C[C@@H](O)CC[C@@]43C)[C@@H]1CC[C@@H]2O [compound 45, 5-Androstenediol] | 640
C[C@@]12CCC[C@H]1[C@@H]1CC[C@H]3C[C@H](O)CC[C@]3(C)[C@H]1CC2 [compound 48, 5α-Androstan-3α-ol] | 1030
C[C@@]12CCC[C@H]1[C@@H]1CC[C@H]3C[C@@H](O)CC[C@]3(C)[C@H]1CC2 [compound 49, 5α-Androstan-3β-ol] | 650
C[C@@]12CCC[C@H]1[C@@H]1CC[C@@H]3C[C@H](O)CC[C@]3(C)[C@H]1CC2 [compound 50, 5β-Androstan-3α-ol] | 510
C[C@@]12CCC[C@H]1[C@@H]1CC[C@@H]3C[C@@H](O)CC[C@]3(C)[C@H]1CC2 [compound 51, 5β-Androstan-3β-ol] | 160
C[C@]12CCCC[C@H]1CC[C@@H]1[C@@H]2CC[C@]2(C)[C@@H](O)CC[C@@H]12 [compound 53, 5β-Androstan-17β-ol] | 365
C[C@]12CCC(=O)C[C@@H]1CC[C@@H]1[C@@H]2CC[C@]2(C)C(=O)CC[C@@H]12 [compound 54, 5α-Androstan-3,17-dione] | 650
C[C@]12CCC(=O)C[C@H]1CC[C@@H]1[C@@H]2CC[C@]2(C)C(=O)CC[C@@H]12 [compound 55, 5β-Androstan-3,17-dione] | 480
C[C@]12CC[C@@H](O)C[C@@H]1CC[C@@H]1[C@@H]2CC[C@]2(C)[C@@H](O)CC[C@@H]12 [compound 62, 5α-Androstan-3α,17β-diol] | 125
CC(=O)O[C@H]1CC[C@H]2[C@@H]3CC[C@H]4C[C@H](O)CC[C@]4(C)[C@H]3CC[C@]12C [compound 63, 5α-Androstan-3α,17β-diol-17-acetate] | 300
C[C@]12CC[C@H](O)C[C@@H]1CC[C@@H]1[C@@H]2CC[C@]2(C)[C@@H](O)CC[C@@H]12 [compound 65, 5α-Androstan-3β,17β-diol] | 1110
C[C@]12CC[C@@H](O)C[C@H]1CC[C@@H]1[C@@H]2CC[C@]2(C)[C@@H](O)CC[C@@H]12 [compound 66, 5β-Androstan-3 α,17 β -diol] | 69
C[C@]12CC[C@@H](O)C[C@H]1CC[C@@H]1[C@@H]2CC[C@]2(C)[C@@H](C(=O)O)CC[C@@H]12 [compound 67, 5β-Androstan-3α-ol-17β-carboxylic acid] | 360
COC(=O)[C@@H]1C[C@@H](O)C[C@H]2CC[C@H]3[C@@H]4CCC[C@@]4(C)CC[C@@H]3[C@]21C [compound 68, 5β-Androstan-3α-ol-1β-carboxylic acid methyl ester] | 43
C[C@]12CC[C@H](O)C[C@H]1CC[C@@H]1[C@@H]2CC[C@]2(C)[C@@H](O)CC[C@@H]12 [compound 69, 5β-Androstan-3β,17β-diol] | 320
